Results from a melting point compilation (Tetko et al.; mined from patent text by program, amines drawn as free bases though some values may be those of a salt).

First: O=C(c1ccc(O)cc1)c1c(-c2ccccc2)ccc2ccccc12
Second: O=C(c1ccc(Cl)cc1)C(Cc1ccc(Cl)cc1)c1cccnc1 (stereo unspecified)
The melting point of the first is higher: 204 to 205 °C for the first, 98 to 99 °C for the second.

First: C=CCN1C2C=C(c3cc4ccccc4s3)CC1CC2 (stereo unspecified)
Second: O=C(Nc1ccc2c(c1)CS(=O)(=O)N2)C(=O)N1CCC(Cc2ccccc2)CC1
The melting point of the first is lower: 60.6 to 62.6 °C for the first, 181 to 182 °C for the second.

Compared with `CO/N=C(/CNC(=O)c1cnc(O[C@@H](C)C(F)(F)F)c(-c2ccc(Cl)cc2)n1)C1CC1`, `COC(=O)c1cncn1C1c2cccc(Cl)c2CC1(C)C` (stereo unspecified) is lower in melting point: 149 to 152 °C for the first, 111 to 113 °C for the second.

First: CC(C)(C)c1ccc([N+](=O)[O-])c(C(=O)O)c1
Second: CCOC(=O)c1c(C)nn(-c2ccccc2[N+](=O)[O-])c1C
The melting point of the first is higher: 137 to 139 °C for the first, 128 to 130 °C for the second.

First: CCN(CC)C(=O)Cc1ccc(NC(=O)/C=C/c2cnn(C)c2-c2ccc(F)cc2)cc1
Second: CCOc1ccc(-c2[nH]c(-c3ccc([N+](=O)[O-])cc3)nc2C(=O)O)cc1
The melting point of the first is higher: 175 to 176 °C for the first, 148 to 152 °C for the second.

First: COc1ccc2c(c1C)CCc1ccc(-c3cccnc3)cc1C21N=C(N)N(C)C1=O (stereo unspecified)
Second: CN1C(=O)C2(COc3cc4c(cc32)OCCO4)c2c(Oc3ccc(F)cc3)cccc21 (stereo unspecified)
The melting point of the first is higher: 235 to 239 °C for the first, 151 to 153 °C for the second.

Compared with `COc1ccc(N2CCN(c3c(C)c(C)c4c(c3C)CC(C)(C)O4)CC2)cc1`, `COC(=O)Cc1c(C)n(-c2nc3ccccc3o2)c2ccc(OC)cc12` is lower in melting point: 152 to 155 °C for the first, 125 to 126 °C for the second.

Compared with `CCOC(=O)C1=C(COCc2ccc(CN(C)C)s2)NC(C)=C(C(=O)OC)C1c1ccccc1Cl` (stereo unspecified), `COC(=O)c1cccc2c1Oc1ccccc1N2` is higher in melting point: 81 to 83 °C for the first, 113 to 114 °C for the second.

First: O=c1[nH]c2ncc(-c3cncnc3)nc2n1CC1CCCCC1
Second: Nc1nc2ccccc2c2c1nc(C1CCCC1)n2CCOc1ccccc1
The melting point of the first is higher: over 260 °C for the first, 216 to 218 °C for the second.

Compared with `O=C(O)C/C(C(=O)O)=C(\CCCCCCCCCCCCCCCCOS(=O)(=O)O)C(=O)O`, `CCCCCCCCCCCCCCCCCCOC(=O)c1ccc(Cn2c(=S)sc3ccccc32)cc1` is higher in melting point: 63 to 65 °C for the first, 105 to 107 °C for the second.

First: CC(=O)OCn1cc(C#N)c(-c2ccccc2Cl)c1
Second: CCCCOc1ccccc1-c1ccc(C(N)=O)c(=O)[nH]1
The melting point of the first is lower: 91 to 95 °C for the first, 190 to 191 °C for the second.

Compared with `Cc1ccc2nc(-c3ccc4c(c3)sc(=N)n4C)sc2c1`, `Cn1cc(C(=O)O)c(=O)c2sc(-c3ccccc3)cc21` is higher in melting point: 146 to 148 °C for the first, 290 to 292 °C for the second.

First: CC(=O)N1CCN(CCn2c3ccccc3c(=NN=C3NCCS3)c3ccccc32)CC1
Second: CC(C)c1cc(OS(C)(=O)=O)cc(C(C)C)c1NC(=O)CN1CCN(CCSc2nc3ccccc3o2)CC1
The melting point of the first is higher: 256 °C for the first, 115 to 117 °C for the second.

First: Cc1cc(Oc2c(Cl)cc(C(F)(F)F)cc2Cl)nn1C(=O)NCCBr
Second: CCOC(=O)c1c(C(F)(F)F)nc(C(F)(F)F)c(C(=O)OC)c1Cl
The melting point of the first is higher: 106 to 107 °C for the first, 46 to 48 °C for the second.

Compared with `Cc1nc2ccccc2nc1C(=O)OCCO`, `CC(=O)OCCOc1cccc(C(N)=O)c1` is lower in melting point: 146 to 148 °C for the first, 121 to 122 °C for the second.

First: CCCc1cccn1NS(=O)(=O)C1CCCC=C1C(=O)OCC (stereo unspecified)
Second: CCOc1ccc(CC(C)=O)cc1S(N)(=O)=O
The melting point of the first is lower: 66 to 68 °C for the first, 158 to 159 °C for the second.

Compared with `N#Cc1c(N2CCCCC2)cccc1[N+](=O)[O-]`, `CC(C)(C)Nc1nc(Cl)cc(N2CCCC2)n1` is higher in melting point: 119 to 121 °C for the first, 153 to 157 °C for the second.

First: COc1ccc([C@H](Sc2cc(Oc3ccc4c(c3)OCO4)ccc2N)[C@@H](O)C(=O)O)cc1
Second: CC(C)Oc1ccc(-n2c(CC(=O)O)c(C(=O)O)c3cc(Oc4ncccc4C(=O)O)ccc32)cc1
The melting point of the first is lower: 112 to 113 °C for the first, 212 to 214 °C for the second.

First: CCN1C(=O)C(C)(C)C(=O)N(C)c2cc(CCCN(CCn3ccc4occc4c3=O)Cc3cccnc3C)ccc21
Second: CCN1C(=O)C(C)(C)C(=O)N(C)c2cc(CCN(CCn3ccc4oc(C)cc4c3=O)Cc3cc(C)nn3C)ccc21
The melting point of the first is higher: 151 to 155 °C for the first, 134 to 140 °C for the second.

First: COc1ccc(-c2cc3cc(OC)c(OC)cc3c(C)n2)cc1OC
Second: Cc1[nH]cnc1/C=C/C(=O)c1cc2ccccc2n1C
The melting point of the first is lower: 168 to 169 °C for the first, 222 to 224 °C for the second.

First: Fc1cccc(-c2ncc(-c3cnc(-c4cccnc4)[nH]3)cn2)c1
Second: c1cn(-c2cc(-n3ccnc3)ncn2)cn1
The melting point of the first is higher: 309 °C for the first, 243 to 244 °C for the second.

First: O=C(O)CON(Cc1ccc(F)cc1)C(=O)C=C(O)C(=O)O
Second: CCCCCCOc1ccc(CCCCCCCCC(=O)N(C)O)cc1
The melting point of the first is higher: 135 to 138 °C for the first, 59 to 61 °C for the second.

First: CC(C)COC(=O)NC1=NCC(c2ccccc2)N1C (stereo unspecified)
Second: COc1ccccc1C1Cc2c(ccn2C)C2C(=O)NC(=O)C12 (stereo unspecified)
The melting point of the first is lower: 103 to 104 °C for the first, 208 to 212 °C for the second.

First: CC1=C(C(O)(c2ccc(C)cc2)C2SCSCS2)CN(C)O1 (stereo unspecified)
Second: CC(=O)OC1CSC(Oc2cncc(-c3ccnc(F)c3)c2)C(OC(C)=O)C1OC(C)=O (stereo unspecified)
The melting point of the first is higher: 150 to 152 °C for the first, 122 to 125 °C for the second.

Compared with `CC(=O)NCCCC(=O)c1ccc(Cl)cc1CCC(=O)N1CCN(C)CC1`, `CCc1nc2ccc(Cl)cc2c(=O)n1CCCn1ccnc1` is higher in melting point: 126 to 128 °C for the first, 147 to 149 °C for the second.

Work on `CC(NC(Nc1cc(C(F)(F)F)cc(C(F)(F)F)c1)=C(C#N)S(=O)(=O)C(C)C)C(C)(C)C` (stereo unspecified) yielded a melting point of 177 to 180 °C.
